Earlier results on 1 compound are cited in patent publication US7049092B1 (priority 1999, dated 2006).

This data set addresses hormone-sensitive lipase. Conditions: read-out: IC50 (concentration producing 50% inhibition).

In the case of `[Cl][Hg][Cl]` [HgCl2 (mercuric chloride), mercuric chloride], the IC50 was 11 µM.
